Experiments:
[1] = target: T1, EGFR L858R/T790M/C797S kinase (EGFR^LTC) (Homo sapiens, UniProt P00533, C797S/L858R/T790M); assay: HTRF KINASE-TK in vitro kinase inhibition assay, dose response; format: biochemical
[2] = target: T1, EGFR L858R/T790M/C797S kinase (EGFR^LTC); assay: biochemical; parameters: HTRF KINASE-TK inhibition assay, EGFR L858R/T790M/C797S, ATP about Km, dose response
Procedure: A total of 25 nL of each compound was transferred to a 384-well reaction plate (Greiner, Cat#784075) using an Echo655 acoustic dispenser. […] The kinase solution was prepared in 1× kinase reaction buffer (comprising 5 mM MgCl₂, 1 mM DTT, and 1 mM MnCl₂), and 2.5 μL of this solution was added to each well. The plate was centrifuged at 140 g for 1 min and incubated at 25 °C for 10 min. […] This ATP level was selected in accordance with the Cheng-Prusoff equation (where ATP = Km, IC50 = 2Ki) to accurately reflect the inhibitory potency of test compounds. Then, 2.5 μL of the substrate-ATP mixture was added to each well, followed by centrifugation at 140 g for 1 min. The plate was sealed and incubated at 25 °C for 50 min. Subsequently, a 2× detection reagent mixture containing XL665 and anti-phospho-tyrosine antibody in detection buffer was prepared, and 5 μL of this solution was added to each well. The plate was centrifuged again (140 g, 1 min) and incubated at 25 °C for 60 min. Fluorescence emissions at 620 nm (Cryptate) and 665 nm (XL665) were measured using a microplate reader. Each assay condition was tested in duplicate. […] This was achieved by fitting the calculated percentage inhibition and the logarithm of the compound concentrations to a variable slope (four-parameter) nonlinear regression model. The model is expressed by the equation:3 Y=Bottom+Top−Bottom/1+10^LogIC50−X×Hill slope where X denotes the log of the inhibitor concentration and Y represents the percentage inhibition. Furthermore, the percentage of enzymatic activity in the presence of inhibitors, expressed as % Control, is derived by subtracting the % Inhibition from 100%.

T1 sequence (P00533 669-1210 T790M/C797S/L858R limits assumed): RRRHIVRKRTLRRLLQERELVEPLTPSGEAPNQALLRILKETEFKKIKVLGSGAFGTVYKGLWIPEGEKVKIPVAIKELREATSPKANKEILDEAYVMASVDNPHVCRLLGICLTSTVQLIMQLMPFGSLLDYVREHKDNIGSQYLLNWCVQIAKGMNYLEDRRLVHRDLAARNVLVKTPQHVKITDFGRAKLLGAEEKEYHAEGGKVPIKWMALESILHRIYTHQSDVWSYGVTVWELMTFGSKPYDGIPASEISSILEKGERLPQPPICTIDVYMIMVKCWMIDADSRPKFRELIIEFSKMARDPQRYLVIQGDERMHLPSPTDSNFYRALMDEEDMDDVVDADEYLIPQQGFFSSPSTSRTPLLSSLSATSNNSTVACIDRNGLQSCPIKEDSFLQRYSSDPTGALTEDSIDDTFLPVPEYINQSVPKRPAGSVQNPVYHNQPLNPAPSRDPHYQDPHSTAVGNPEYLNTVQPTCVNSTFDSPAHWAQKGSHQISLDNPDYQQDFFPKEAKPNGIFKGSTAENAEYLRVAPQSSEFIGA

SMILES | IC50 [1] [nM] | IC50 [2] [µM]
CC(=O)c1cnc2ccc(-c3cc(Cl)c(O)c(Cl)c3)nc2c1N[C@H]1CC[C@H](CN(C)C)CC1 [C1] | 5.5 | 
CC(C)N(C[C@H]1O[C@@H](n2cnc3c(N)ncnc32)[C@H](O)[C@@H]1O)[C@H]1C[C@@H](CCc2nc3cc(C(C)(C)C)ccc3[nH]2)C1 [C6] |  | > 10
N[C@@H]1c2cccnc2[C@H](OC(=O)N2CCC(n3c(=O)[nH]c4ncccc43)CC2)CC[C@H]1c1cccc(F)c1F [C8] |  | > 10
CC(=O)O[C@]1(C(C)=O)CC[C@H]2[C@@H]3CCC4=CC(=O)CCC4=C3[C@@H](c3ccc(N(C)C)cc3)C[C@@]21C [C9] |  | > 10
N#Cc1ccnc(Nc2cc(C3CCN(C4COC4)CC3)cc(N3CCC(F)(F)C3)n2)c1 [C11] | < 10000 | 0.106

Continued, values first:

IC50 [1] [nM] | IC50 [2] [µM] | SMILES
 | > 10 | CN(C)CC#Cc1ccc(OCCCc2sc(N3CCc4cccc(C(=O)Nc5nc6ccccc6s5)c4C3)nc2C(=O)O)c(F)c1 [C2]
 | > 10 | CC1(C)CCC(CN2CCN(c3ccc(C(=O)NS(=O)(=O)c4ccc(NCC5CCOCC5)c([N+](=O)[O-])c4)c(Oc4cnc5[nH]ccc5c4)c3)CC2)=C(c2ccc(Cl)cc2)C1 [C3]
< 10000 | 2.74 | COc1cc2nccc(Oc3ccc(NC(=O)c4cn(C(C)C)c(=O)n(-c5ccc(F)cc5)c4=O)cc3F)c2cc1OC [C5]
< 10000 | 3.58 | CCc1cc(Nc2nccc(-c3c(-c4ccc(OC)c(C(=O)Nc5c(F)cccc5F)c4)nc4ccccn34)n2)c(OC)cc1N1CCC(N2CCN(S(C)(=O)=O)CC2)CC1 [C7]
1.2 |  | COc1cc(N2CCC(N(C)C)CC2)ccc1Nc1ncc(Cl)c(Nc2ccccc2P(C)(C)=O)n1 [C10]
